Data reported in ChEMBL document CHEMBL5634096, “Design, synthesis and bioevaluation of PI3Kα-selective inhibitors as potential colorectal cancer drugs” (Eur J Med Chem, 2023).
pIC50: −log10 of the molar value.

Key:
[1] = target: Phosphatidylinositol 4,5-bisphosphate 3-kinase catalytic subunit alpha isoform (Homo sapiens, UniProt P42336); test: Inhibition of PI3Kalpha (unknown origin) by ADP-Glo luminescent kinase assay
MDA-MB-231 = test: Antiproliferative activity against human MDA-MB-231 cells assessed as reduction in cell viability incubated for 24 to 48 hrs by CCK-8 assay; type: functional, cell-based
SW-620 = test: Antiproliferative activity against human SW-620 cells assessed as reduction in cell viability incubated for 24 to 48 hrs by CCK-8 assay; type: functional, cell-based
MCF7 = test: Antiproliferative activity against human MCF7 cells assessed as reduction in cell viability incubated for 24 to 48 hrs by CCK-8 assay; type: functional, cell-based
HCT-116 = test: Antiproliferative activity against human HCT-116 cells assessed as reduction in cell viability incubated for 24 to 48 hrs by CCK-8 assay; type: functional, cell-based
[2] = target: T1, Phosphatidylinositol 4,5-bisphosphate 3-kinase catalytic subunit delta isoform (Homo sapiens, UniProt O00329); test: Inhibition of PI3Kdelta (unknown origin) by ADP-Glo luminescent kinase assay
T1 sequence (O00329 whole entry): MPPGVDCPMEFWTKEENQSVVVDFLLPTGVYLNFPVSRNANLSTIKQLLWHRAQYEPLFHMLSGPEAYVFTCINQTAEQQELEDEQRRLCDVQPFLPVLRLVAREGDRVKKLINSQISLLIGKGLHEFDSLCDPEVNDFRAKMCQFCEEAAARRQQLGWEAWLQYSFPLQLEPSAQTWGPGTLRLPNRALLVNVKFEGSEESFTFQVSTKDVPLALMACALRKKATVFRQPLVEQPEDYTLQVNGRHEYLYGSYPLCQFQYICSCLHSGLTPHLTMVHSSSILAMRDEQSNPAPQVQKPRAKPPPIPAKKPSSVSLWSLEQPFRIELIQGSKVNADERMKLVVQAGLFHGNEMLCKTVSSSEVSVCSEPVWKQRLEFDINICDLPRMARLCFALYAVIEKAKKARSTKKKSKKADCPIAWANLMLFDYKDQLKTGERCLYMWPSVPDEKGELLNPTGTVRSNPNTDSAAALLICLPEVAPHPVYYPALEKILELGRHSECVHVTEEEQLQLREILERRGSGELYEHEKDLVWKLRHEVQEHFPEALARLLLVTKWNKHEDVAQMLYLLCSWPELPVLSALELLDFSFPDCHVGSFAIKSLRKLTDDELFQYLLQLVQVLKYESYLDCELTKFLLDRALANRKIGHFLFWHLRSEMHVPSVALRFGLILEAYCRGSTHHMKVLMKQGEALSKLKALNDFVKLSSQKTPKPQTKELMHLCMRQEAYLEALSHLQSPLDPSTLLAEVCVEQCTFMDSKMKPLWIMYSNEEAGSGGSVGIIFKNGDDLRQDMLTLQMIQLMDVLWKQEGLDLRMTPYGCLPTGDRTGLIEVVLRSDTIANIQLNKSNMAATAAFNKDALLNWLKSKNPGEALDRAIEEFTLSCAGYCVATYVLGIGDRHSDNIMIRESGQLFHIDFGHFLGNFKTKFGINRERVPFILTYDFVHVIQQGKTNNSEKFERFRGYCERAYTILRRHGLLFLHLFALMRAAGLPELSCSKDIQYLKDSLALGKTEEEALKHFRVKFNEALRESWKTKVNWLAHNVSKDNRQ

[3] = target: Phosphatidylinositol 4,5-bisphosphate 3-kinase catalytic subunit gamma isoform (Homo sapiens, UniProt P48736); test: Inhibition of PI3Kgamma (unknown origin) by ADP-Glo luminescent kinase assay
Sequence of Phosphatidylinositol 4,5-bisphosphate 3-kinase catalytic subunit gamma isoform (P48736 whole entry, canonical isoform): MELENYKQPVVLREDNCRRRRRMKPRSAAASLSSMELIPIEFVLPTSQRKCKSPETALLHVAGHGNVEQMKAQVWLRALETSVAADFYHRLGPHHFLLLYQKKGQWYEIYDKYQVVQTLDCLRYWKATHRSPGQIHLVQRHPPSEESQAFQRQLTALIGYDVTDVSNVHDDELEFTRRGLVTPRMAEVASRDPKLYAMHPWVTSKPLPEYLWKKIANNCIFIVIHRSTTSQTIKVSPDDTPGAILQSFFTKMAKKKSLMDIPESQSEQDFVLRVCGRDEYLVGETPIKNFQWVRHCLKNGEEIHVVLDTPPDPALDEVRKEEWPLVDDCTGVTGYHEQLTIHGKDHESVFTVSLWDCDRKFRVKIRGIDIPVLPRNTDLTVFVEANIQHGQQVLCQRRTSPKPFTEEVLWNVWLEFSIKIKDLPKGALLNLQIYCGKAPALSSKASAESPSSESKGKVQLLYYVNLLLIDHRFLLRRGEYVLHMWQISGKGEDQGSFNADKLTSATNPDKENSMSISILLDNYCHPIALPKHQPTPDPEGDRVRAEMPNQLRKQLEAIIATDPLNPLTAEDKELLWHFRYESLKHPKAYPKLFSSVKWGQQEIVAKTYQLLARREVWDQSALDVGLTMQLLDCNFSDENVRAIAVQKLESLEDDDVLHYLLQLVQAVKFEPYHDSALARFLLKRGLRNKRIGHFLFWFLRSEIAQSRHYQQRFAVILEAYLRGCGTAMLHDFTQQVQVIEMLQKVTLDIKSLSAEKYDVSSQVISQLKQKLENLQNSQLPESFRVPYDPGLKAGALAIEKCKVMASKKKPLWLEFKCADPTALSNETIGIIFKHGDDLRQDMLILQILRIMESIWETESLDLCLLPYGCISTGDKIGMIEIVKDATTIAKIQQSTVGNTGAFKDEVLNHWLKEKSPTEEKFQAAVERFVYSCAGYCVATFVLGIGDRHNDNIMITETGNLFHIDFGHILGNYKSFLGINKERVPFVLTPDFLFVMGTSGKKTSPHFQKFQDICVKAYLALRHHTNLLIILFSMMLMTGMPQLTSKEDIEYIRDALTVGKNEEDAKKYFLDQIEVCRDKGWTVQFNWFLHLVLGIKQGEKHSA

[4] = target: Phosphatidylinositol 4,5-bisphosphate 3-kinase catalytic subunit beta isoform (Homo sapiens, UniProt P42338); test: Inhibition of PI3Kbeta (unknown origin) by ADP-Glo luminescent kinase assay
Sequence of Phosphatidylinositol 4,5-bisphosphate 3-kinase catalytic subunit beta isoform (P42338 whole entry, canonical isoform): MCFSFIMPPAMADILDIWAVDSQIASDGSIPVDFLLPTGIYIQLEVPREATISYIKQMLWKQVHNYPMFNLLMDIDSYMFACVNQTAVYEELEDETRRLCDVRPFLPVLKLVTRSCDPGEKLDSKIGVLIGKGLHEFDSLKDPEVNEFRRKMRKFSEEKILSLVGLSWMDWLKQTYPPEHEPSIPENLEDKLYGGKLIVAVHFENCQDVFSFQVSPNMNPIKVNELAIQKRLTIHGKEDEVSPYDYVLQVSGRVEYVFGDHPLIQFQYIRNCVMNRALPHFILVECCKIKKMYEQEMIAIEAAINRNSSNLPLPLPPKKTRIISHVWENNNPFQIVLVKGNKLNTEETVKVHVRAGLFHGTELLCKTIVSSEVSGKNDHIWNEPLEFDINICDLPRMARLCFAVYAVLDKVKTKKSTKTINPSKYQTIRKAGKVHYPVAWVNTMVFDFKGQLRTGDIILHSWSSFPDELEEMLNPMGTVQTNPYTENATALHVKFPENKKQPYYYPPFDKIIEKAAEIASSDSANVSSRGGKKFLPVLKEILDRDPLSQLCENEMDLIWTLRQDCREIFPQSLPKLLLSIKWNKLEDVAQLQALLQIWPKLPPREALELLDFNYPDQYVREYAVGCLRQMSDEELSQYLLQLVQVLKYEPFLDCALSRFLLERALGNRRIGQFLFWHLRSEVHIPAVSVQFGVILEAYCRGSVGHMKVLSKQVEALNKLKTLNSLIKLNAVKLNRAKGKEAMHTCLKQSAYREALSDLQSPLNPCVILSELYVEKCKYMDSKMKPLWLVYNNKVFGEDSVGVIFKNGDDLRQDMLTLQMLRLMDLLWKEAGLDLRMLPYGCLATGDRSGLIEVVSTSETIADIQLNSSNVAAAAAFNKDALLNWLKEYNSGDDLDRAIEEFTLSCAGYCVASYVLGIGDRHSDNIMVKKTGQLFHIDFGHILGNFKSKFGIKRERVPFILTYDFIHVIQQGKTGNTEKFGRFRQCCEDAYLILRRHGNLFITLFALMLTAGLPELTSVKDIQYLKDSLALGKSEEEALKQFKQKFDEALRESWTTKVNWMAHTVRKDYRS

Sequence of Phosphatidylinositol 4,5-bisphosphate 3-kinase catalytic subunit alpha isoform (P42336 whole entry, canonical isoform): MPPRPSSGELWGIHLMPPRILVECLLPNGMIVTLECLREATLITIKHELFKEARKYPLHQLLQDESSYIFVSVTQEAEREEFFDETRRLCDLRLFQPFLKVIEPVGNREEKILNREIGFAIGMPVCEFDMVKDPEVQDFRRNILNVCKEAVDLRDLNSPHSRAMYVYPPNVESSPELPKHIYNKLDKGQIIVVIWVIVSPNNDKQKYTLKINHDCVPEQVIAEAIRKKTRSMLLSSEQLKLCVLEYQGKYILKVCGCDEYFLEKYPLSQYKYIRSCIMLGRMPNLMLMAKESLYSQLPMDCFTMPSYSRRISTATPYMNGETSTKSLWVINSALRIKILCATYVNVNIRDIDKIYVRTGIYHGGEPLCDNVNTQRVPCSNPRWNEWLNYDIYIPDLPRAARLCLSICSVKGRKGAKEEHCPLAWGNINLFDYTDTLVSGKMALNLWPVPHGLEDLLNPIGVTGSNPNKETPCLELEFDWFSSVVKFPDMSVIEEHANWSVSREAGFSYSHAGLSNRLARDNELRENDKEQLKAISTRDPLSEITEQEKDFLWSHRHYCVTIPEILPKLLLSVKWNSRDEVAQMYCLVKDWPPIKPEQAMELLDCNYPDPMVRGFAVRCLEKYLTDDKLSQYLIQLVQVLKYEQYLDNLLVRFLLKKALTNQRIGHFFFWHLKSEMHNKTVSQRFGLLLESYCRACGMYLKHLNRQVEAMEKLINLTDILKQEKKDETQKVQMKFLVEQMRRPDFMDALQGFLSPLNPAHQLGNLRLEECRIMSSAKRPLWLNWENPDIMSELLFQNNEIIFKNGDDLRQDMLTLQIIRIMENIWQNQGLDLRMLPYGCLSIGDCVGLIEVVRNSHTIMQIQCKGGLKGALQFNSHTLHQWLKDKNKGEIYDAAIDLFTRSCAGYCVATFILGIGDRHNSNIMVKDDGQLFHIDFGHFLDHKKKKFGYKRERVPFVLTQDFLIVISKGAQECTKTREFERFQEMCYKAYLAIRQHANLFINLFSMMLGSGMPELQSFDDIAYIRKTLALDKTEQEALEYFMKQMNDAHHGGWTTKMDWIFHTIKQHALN

SMILES | pIC50 [1] | pIC50 (MDA-MB-231) | pIC50 (SW-620) | pIC50 (MCF7) | pIC50 (HCT-116) | pIC50 [2] | pIC50 [3] | pIC50 [4]
Nc1nc2cc(-c3ccc4ncc(NCC(=O)NO)nc4c3)ccc2o1 | 6.97 |  |  |  |  |  |  | 
COC1CCN(C(=O)c2cnc3ccc(-c4ccc5oc(N)nc5c4)cn23)C1 (stereo unspecified) | 5.01 |  |  |  |  |  |  | 
NC(=O)[C@@H](NC(=O)c1cnc2ccc(-c3ccc4oc(N)nc4c3)cn12)c1ccccc1 | 7.85 | 4.68 | 4.77 | 5.01 | 5.03 |  |  | 
NC(=O)CNc1cnc2cc(-c3ccc4oc(N)nc4c3)ccc2n1 | 6.32 |  |  |  |  |  |  | 
NC(=O)CNc1ncnc2ccc(-c3ccc4oc(N)nc4c3)cc12 | 7.59 |  |  |  |  |  |  | 
C[C@H](Nc1ncnc2ccc(-c3ccc4oc(N)nc4c3)cc12)C(N)=O | 7.73 | < 4.00 | < 4.00 | < 4.00 | < 4.00 |  |  | 
C[C@H](NC(=O)c1cnc2ccc(-c3ccc4oc(N)nc4c3)cn12)C(=O)O | < 5.00 |  |  |  |  |  |  | 
CN(C)C1CCN(C(=O)c2cnc3ccc(-c4ccc5oc(N)nc5c4)cn23)C1 (stereo unspecified) | 7.97 | 4.91 | 4.96 | 4.82 | 5.22 |  |  | 
Nc1nc2cc(-c3ccc4nc(N5C[C@@H]6OCCO[C@@H]6C5)cnc4c3)ccc2o1 | 5.78 |  |  |  |  |  |  | 
C[C@H](NC(=O)c1cnc2ccc(-c3ccc4oc(N)nc4c3)cn12)C(N)=O | 8.34 | 4.68 | 4.95 | 5.74 | 5.15 | 6.94 | 6.63 | 6.09
Nc1nc2cc(-c3ccc4ncc(C(=O)N5C[C@H]6OCCO[C@@H]6C5)n4c3)ccc2o1 (single isomer, unassigned) | 8.06 | 4.97 | 4.87 | 5.23 | 5.10 |  |  | 
Nc1nc2cc(-c3ccc4ncc(N5C[C@@H]6OCCO[C@H]6C5)nc4c3)ccc2o1 | 6.22 |  |  |  |  |  |  | 
C[C@@H](NC(=O)c1cnc2ccc(-c3ccc4oc(N)nc4c3)cn12)C(N)=O | < 5.00 | < 4.00 | < 4.00 | 4.44 | < 4.00 |  |  | 
CCC(NC(=O)c1cnc2ccc(-c3ccc4oc(N)nc4c3)cn12)C(=O)OC (stereo unspecified) | 6.09 | < 4.00 | < 4.00 | < 4.00 | < 4.00 |  |  | 
NC(=O)[C@@H]1CCCN1C(=O)c1cnc2ccc(-c3ccc4oc(N)nc4c3)cn12 | 7.74 | 4.60 | 4.92 | 5.66 | 5.00 |  |  | 
CCOC(=O)[C@H](C)NC(=O)c1cnc2ccc(-c3ccc4oc(N)nc4c3)cn12 | < 5.00 | < 4.00 | < 4.00 | < 4.00 | < 4.00 |  |  | 
NC(=O)C(NC(=O)c1cnc2ccc(-c3ccc4oc(N)nc4c3)cn12)c1ccccc1 (stereo unspecified) | 7.71 | < 4.00 | 4.42 | 4.79 | 4.47 |  |  | 
NC(=O)CNc1cnc2ccc(-c3ccc4oc(N)nc4c3)cc2n1 | 8.42 | 4.99 | 4.60 | 5.25 | 5.34 |  |  | 
Nc1nc2ccc(-c3ccc4ncc(C(=O)N5CCOC(CO)C5)n4c3)cc2o1 (single isomer, unassigned) | 7.73 | 4.76 | < 4.00 | 4.72 | 4.84 |  |  | 
NC(=O)[C@H](Cc1ccccc1)NC(=O)c1cnc2ccc(-c3ccc4oc(N)nc4c3)cn12 | 7.95 | 4.74 | 5.08 | 4.73 | 5.11 |  |  | 
NC(=O)[C@H](Cc1ccc(O)cc1)NC(=O)c1cnc2ccc(-c3ccc4oc(N)nc4c3)cn12 | 5.45 | < 4.00 | 4.54 | 4.83 | < 4.00 |  |  | 
Nc1nc2cc(-c3ccc4ncc(C(=O)N5CCNCC5)n4c3)ccc2o1 | 6.86 |  |  |  |  |  |  | 
NC(=O)[C@H](NC(=O)c1cnc2ccc(-c3ccc4oc(N)nc4c3)cn12)c1ccccc1 | 7.64 | < 4.00 | 4.30 | 4.91 | 5.14 |  |  | 
Nc1nc2cc(-c3ccc4ncc(C(=O)N5C[C@@H]6OCCO[C@@H]6C5)n4c3)ccc2o1 | 8.14 | 4.91 | 5.15 | 5.64 | 5.27 |  |  | 
CN(C)C1CCN(C(=O)c2cnc3ccc(-c4ccc5oc(N)nc5c4)cn23)CC1 | 7.55 | < 4.00 | 4.50 | 5.47 | 5.39 |  |  | 
C[C@H](Nc1cnc2ccc(-c3ccc4oc(N)nc4c3)cc2n1)C(N)=O | 6.30 | 4.82 | 4.22 | 4.98 | 4.59 |  |  | 
